# Assay results from patent publication US20080312271A1, “AZABENZIMIDAZOLYL COMPOUNDS” (Pfizer Inc., priority 2006, published 2008).
# Biological target: T1, mGluR2 receptor (metabotropic glutamate receptor 2) (Homo sapiens, UniProt Q14416)
# T1 construct: expressed in transfected cells
# Test: mGluR2 Potentiator Screen, FLIPR, EC10-EC20 glutamate challenge
# Format: cell-based
# Details: not given
# Protocol: Procedure for mGluR2 Potentiator Screen NLB methods EC10-EC20 Challenge Cell Culture and Plating:
# Cells used for this screen are HEK cells stably transfected with the mGluR2 receptor (metabotropic glutamate receptor 2) and the Gα15 G protein. Clones were identified by functional activity (FLIPR). Cells are grown in growth media containing: DMEM High Glucose with Glutamine and Na Pyruvate (GIBCO), 10% (v/v) Heat inactivate FBS (GIBCO), G418 500 ug/ml (from 50 mg/ml stock) (GIBCO) and Blasticidin 3 ug/ml (from 5 mg/ml stock made in H2O) (Invitrogen).
# 2 days before the assay cell are trypsinized with 0.25% trysin/EDTA (GIBCO), spun down at 1000 rpm for 5 minutes, resuspended in growth media and plated on polystyrene 384 well black wall 1 clear bottom poly-D-lysine coated plates at a density of approximately 18,000 cells/well in a volume of 50 μL per well. One day before the assay the growth media is removed from the plates by flicking, and replaced with media containing DMEM High Glucose without Glutamine and Na Pyruvate (GIBCO) and 10% (v/v) dialyzed FBS (GIBCO). The reason for the removal of glutamine the day before the assay is to minimize the amount of glutamate that will be present during the assay, as endogenous glutarnate released from the cells can reduce the fluorescent response and interfere with the FLIPR screen.
# FLIPR Methods and Data Analysis:
# On the day of the assay, the FLIPR assay is performed using the following methods.
# The pH is adjusted to 7.4 with 1 M NaOH. Prepare a 2 mM (approx.) stock solution of Fluo-4,am (Molecular Probes) dye in DMSO-22 μl DMSO per 50 ug vial (440 μL per 1 mg vial). Make a 1 mM (approx.) flou-4, PA working solution per vial by adding 22 μl of 20% pluronic acid (PA), (Molecular Probes) in DMSO to each 50 ug vial (440 μL per 1 mg vial). Prepare a 250 mM Probenecid (Sigma) stock solution by dissolving 0.71 g into 5 ml 1N NaOH and 5 ml assay buffer (for each liter of assay wash buffer)L Make 4 uM (approx.) dye incubation media by adding […] per 11 ml DMEM high glucose without glutamine (220 ml per 1 mg vial). Add 110 μL probenecid stock per 11 ml (2.5 mM final [concentration]). To the dye media add 3 units/ml of glutamic-pyruvic transaminase (GPT, Sigma) and 3 mM Na Pyruvate. The assay has worked with dye concentrations from 2 uM to 8 uM dye as well. To the assay buffer from drug preparation, add 1.83 mls DMSO and 400 μL 15.8% P104 (from New Leads biology) per liter for final concentrations of 0.18% DMSO and 0.006% P104. To the assay buffer for cell washing, add probenecid in the same manner and concentration that was used for the dye media.
# Remove growth media from cell plates by flicking. Add 50 μl/well dye solution. Incubate 1 hour at 37° C. and 5% CO2. Remove dye solution and wash 3 times with assay buffer+probenecid (100 μl probenecid stock per 10 ml buffer), leaving 30 μL/well assay buffer. Wait at least 10-15 minutes. Compounds and agonist challenge additions are performed with the FLIPR. The 1st addition is for test compounds, which are added as 15 μL of 4×[concentration] of potentiator. The second 2nd addition is 15 μL of 4×[concentration] of agonist or challenge. This achieves 1× concentration of all compounds only after 2nd addition. The 1st and 2nd additions are performed separately using the FLIPR, which give 2 different data files. Compounds are pretreated at least 30 minutes before agonist addition,
# Results are analyzed by dividing the peak fluorescent value of the FLIPR response by the […] to achieve a ratio response. The ratios are then analyzed by curve fitting programs. […] Maximum values for dose response curves (forced fitting) are derived from standards on the plate.
# Compound Preparation and Glutamate Challenge:
# Compounds are delivered as 10 mM DMSO stocks or as powders, Powders are solubilized in DMSO at 10 mM (as solubility allows). Compounds are sonicated in a heated water bath (35-40° C.) for at least 20 minutes.
# T1 sequence (Q14416 19-872, species assumed): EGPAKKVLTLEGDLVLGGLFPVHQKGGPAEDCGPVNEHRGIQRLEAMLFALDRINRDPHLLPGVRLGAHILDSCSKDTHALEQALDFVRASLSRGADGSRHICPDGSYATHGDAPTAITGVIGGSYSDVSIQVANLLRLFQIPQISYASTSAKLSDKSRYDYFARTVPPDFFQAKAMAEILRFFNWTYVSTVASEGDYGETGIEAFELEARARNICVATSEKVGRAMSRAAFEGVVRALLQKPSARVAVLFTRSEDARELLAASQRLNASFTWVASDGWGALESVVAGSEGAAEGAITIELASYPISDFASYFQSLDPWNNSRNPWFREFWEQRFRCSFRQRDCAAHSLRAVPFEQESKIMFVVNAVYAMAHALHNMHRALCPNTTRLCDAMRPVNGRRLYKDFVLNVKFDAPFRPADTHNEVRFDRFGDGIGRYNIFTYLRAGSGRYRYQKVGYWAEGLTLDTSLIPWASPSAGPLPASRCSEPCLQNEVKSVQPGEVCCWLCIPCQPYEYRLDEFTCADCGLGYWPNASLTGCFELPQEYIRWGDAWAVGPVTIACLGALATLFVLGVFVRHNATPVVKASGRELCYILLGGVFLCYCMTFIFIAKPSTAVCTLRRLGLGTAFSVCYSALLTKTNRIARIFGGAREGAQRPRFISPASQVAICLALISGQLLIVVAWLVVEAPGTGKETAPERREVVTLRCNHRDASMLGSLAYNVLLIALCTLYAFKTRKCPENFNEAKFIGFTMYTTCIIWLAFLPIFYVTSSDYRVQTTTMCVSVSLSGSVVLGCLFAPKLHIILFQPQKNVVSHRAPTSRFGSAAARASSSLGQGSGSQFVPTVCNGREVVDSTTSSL
row,Structure (SMILES),EC50 [nM]
1,"C[C@@H]1CN(Cc2nc3cnccc3n2C)CC[C@@H]1c1ccc(OC(F)(F)F)cc1 (single isomer, unassigned) [compound 176]",98.9
2,Cn1c(CN2CCC(c3ccc(F)cc3F)CC2)nc2cnccc21 [compound 84],218
3,"C[C@@H]1CN(Cc2nc3ncccc3n2C)CC[C@@H]1c1ccc(Cl)cc1F (single isomer, unassigned) [compound 122]",28.8
4,C[C@@H]1CN(Cc2nc3ncccc3n2C)CC[C@@H]1c1ccc(OC(F)F)cc1 (relative stereo) [compound 177],429
5,Cn1c(CN2CCC(c3ccc(Cl)c(F)c3)CC2)nc2cnccc21 [compound 107],315
6,CC1CN(Cc2nc3ncccc3n2C)CCC1c1ccccc1F (centres unmarked) [compound 72],301
7,Cn1c(CN2CCC(c3ccc(F)c(Cl)c3)CC2)nc2ncccc21 [compound 101],313
8,CCOc1ccc(C2CCN(Cc3nc4ncccc4n3C)CC2)cc1 [compound 98],2270
9,"C[C@@H]1CN(Cc2nc3cnccc3n2C)CC[C@@H]1c1ccc(C(F)(F)F)cc1Cl (single isomer, unassigned) [compound 172]",48.5
10,"C[C@@H]1CN(Cc2nc3ncccc3n2C)CC[C@@H]1c1ccc(C(F)(F)F)cc1 (single isomer, unassigned) [compound 118]",33.4
11,COc1ccccc1C1CCN(Cc2nc3cnccc3n2C)CC1 [compound 46],1450
12,CCOc1ccc([C@H]2CCN(Cc3nc4ncccc4n3C)C[C@H]2C)cc1 (relative stereo) [compound 120],639
13,Cc1cc(Cl)ccc1[C@H]1CCN(Cc2nc3cnccc3n2C)C[C@H]1C (relative stereo) [compound 161],393

# More lines, now with the values ahead:
row,EC50 [nM],Structure (SMILES)
1,> 1070,C[C@@H]1CN(Cc2nc3cnccc3n2C)CC[C@@H]1c1ccc2c(c1)CCO2 (relative stereo) [compound 201]
2,469,C[C@@H]1CN(Cc2nc3ncccc3n2C)CC[C@@H]1c1ccc2c(c1)CCO2 (relative stereo) [compound 200]
3,611,"C[C@@H]1CN(Cc2nc3ncccc3n2C)CC[C@@H]1c1ccc(Cl)cc1Cl (single isomer, unassigned) [compound 186]"
4,506,CC(C)Oc1ccc([C@H]2CCN(Cc3nc4ncccc4n3C)C[C@H]2C)cc1Cl (relative stereo) [compound 195]
5,> 129,"C[C@@H]1CN(Cc2nc3ncccc3n2C)CC[C@@H]1c1ccc(OC(F)F)cc1 (single isomer, unassigned) [compound 223]"
6,64.2,"C[C@@H]1CN(Cc2nc3ncccc3n2C)CC[C@@H]1c1ccc(Cl)cc1Cl (single isomer, unassigned) [compound 185]"
7,> 1260,"C[C@@H]1CN(Cc2nc3cnccc3n2C)CC[C@@H]1c1cc(F)c(F)cc1F (single isomer, unassigned) [compound 226]"
8,62.6,Cc1ccc([C@H]2CCN(Cc3nc4ncccc4n3C)C[C@H]2C)c(Cl)c1 (relative stereo) [compound 210]

# Same assay, conditions: mGluR2 potentiator screen, FLIPR, EC10-EC20 glutamate challenge
row,EC50 [nM],Structure (SMILES)
1,125,CC(C)Oc1ccc(C2CCN(Cc3nc4cnccc4n3C)CC2)c(F)c1 [compound 261]
2,289,COc1cc(C2CCN(Cc3nc4ncccc4n3C)CC2)ccc1C(F)(F)F [compound 279]
3,> 1410,"C[C@@H]1CN(Cc2nc3cnccc3n2C)CC[C@@H]1c1ccc(OC(F)F)cc1Cl (single isomer, unassigned) [compound 247]"
4,494,COc1ccc(C2CCN(Cc3nc4ncccc4n3C)CC2)c(C(F)(F)F)c1 [compound 271]
5,160,Cn1c(CN2CCC(c3ccc(OC(F)(F)F)cc3)CC2)nc2cnccc21 [compound 237]
6,245,COc1cc(C2CCN(Cc3nc4cnccc4n3C)CC2)ccc1C(F)(F)F [compound 278]
7,135,C[C@@H]1CN(Cc2nc3cnccc3n2C)CC[C@@H]1c1ccc(C(F)(F)F)c(Cl)c1 (relative stereo) [compound 235]
8,21,"C[C@@H]1CN(Cc2nc3ncccc3n2C)CC[C@@H]1c1ccc(F)cc1C(F)(F)F (single isomer, unassigned) [compound 251]"
